Measurements as given in patent US10155021B2, “Antimicrobial 4-oxoquinolizines” (Emergent Product Development Gaithersburg Inc., priority 2011, dated 2018).
In brackets after ≈: the same amount, converted by molar mass. Like-named read-outs stand apart in the source and are kept apart here. Marks after values point to notes of the source that are not given here.

How the values were obtained:
A. baumannii A401 = assay: MIC without and with sub-inhibitory polymyxin B (Example 4); type: cell-based, Acinetobacter baumannii; conditions: Acinetobacter baumannii, A401, A baumannii A 401; without polymyxin B; 2nd experiment; visual reading; read-out: MIC without PB
A. baumannii A 401 = assay: MIC determination for Acinetobacter strains (Example 3); type: cell-based; conditions: A401, LEV R, CIP R, AMK R, TET R
A. baumannii A329 [1] = assay: as above; type: cell-based; conditions: LEV R, CIP R, MRP R, IMP R, AMK R, TET R
A. baumannii A390 = assay: Preliminary MBC without and with sub-inhibitory polymyxin B (Example 4); type: cell-based, Acinetobacter baumannii; conditions: preliminary MBC; for MBC: Acinetobacter baumannii, A390, A. baumannii A390, without polymyxin B, read-out: MBC without PB
A. baumannii A329 [2] = assay: as above; type: cell-based, Acinetobacter baumannii; conditions: for MBC: Acinetobacter baumannii, A329, A. baumannii A329, without polymyxin B, read-out: MBC without PB
A. baumannii A473 [3] = assay: MIC without and with sub-inhibitory polymyxin B (Example 4); type: cell-based, Acinetobacter baumannii; conditions: for MIC: Acinetobacter baumannii, A473, A. baumannii A473, without polymyxin B, read-out: MIC without PB
A. baumannii A329 [4] = assay: as above; type: cell-based, Acinetobacter baumannii; conditions: for MIC: Acinetobacter baumannii, A329, A. baumannii A329, without polymyxin B, read-out: MIC without PB
A. baumannii A472 [5] = assay: as above; type: cell-based, Acinetobacter baumannii; conditions: for MIC +[…] PB: +[…] polymyxin B; for MIC: Acinetobacter baumannii, A472, A. baumannii A472, without polymyxin B, read-out: MIC without PB
A. baumannii A472 [6] = assay: Preliminary MBC without and with sub-inhibitory polymyxin B (Example 4); type: cell-based, Acinetobacter baumannii; conditions: for MBC +[…] PB: A. baumannii A472, +[…] polymyxin B; for MBC: Acinetobacter baumannii, A472, A. baumannii A472, without polymyxin B, read-out: MBC without PB
A. baumannii A489 = assay: as above; type: cell-based, Acinetobacter baumannii; conditions: for MBC +[…] PB: A. baumannii A489, +[…] polymyxin B; for MBC: Acinetobacter baumannii, A489, A. baumannii A489, without polymyxin B, read-out: MBC without PB
[7] = system: Acinetobacter sp. (H064200250); assay: as above; type: cell-based; conditions: preliminary MBC; for MBC +[…] PB: +[…] polymyxin B; for MBC: Acinetobacter, without polymyxin B, read-out: MBC without PB
Summary of the method: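 After plating, cultures are held at 37° C for 18-20 hours; the endpoint is then scored by comparing colony growth against the positive control, with MBC defined as the lowest concentration showing roughly 90% reduction.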

A. baumannii J2 = assay: MIC without and with sub-inhibitory polymyxin B (Example 4); type: cell-based, Acinetobacter baumannii; conditions: for MIC +[…] PB / MIC without PB/MIC + PB: A. baumannii J2; for MIC +[…] PB: +[…] polymyxin B; for MIC without PB/MIC + PB: ratio; for MIC: Acinetobacter baumannii, J2, A. baumannii J2, without polymyxin B
A. baumannii A473 [8] = assay: Preliminary MBC without and with sub-inhibitory polymyxin B (Example 4); type: cell-based, Acinetobacter baumannii; conditions: for MBC: Acinetobacter baumannii, A473, A. baumannii A473, without polymyxin B, read-out: MBC without PB
[9] = system: Acinetobacter spp. H064200250; assay: MIC determination for Acinetobacter strains (Example 3); type: cell-based, Acinetobacter sp.; conditions: LEV R, CIP R, MRP R, IMP I
[10] = Acinetobacter spp. H064200250 (OXA51), 2nd experiment
[11] = Acinetobacter spp. H064200250, 1st experiment

C[C@@H](O)[C@H]1C(=O)N2C(C(=O)O)=C(SCCN=CN)C[C@H]12 [Imipenem, reference compound]
MIC (A. baumannii A401): 32 µg/mL (≈ 107 µM) | MIC (A. baumannii A 401): 32 µg/mL (≈ 107 µM) | MIC (A. baumannii A329 [1]): 128 µg/mL (≈ 428 µM) | MBC +0.06 μg/ml PB (A. baumannii A390; A. baumannii A390, +0.06 μg/ml polymyxin B, 2nd experiment): 4 µg/mL | MBC (A. baumannii A390; 2nd experiment): 16 µg/mL (≈ 53.4 µM) | MBC (A. baumannii A390; 1st experiment): 16 µg/mL (≈ 53.4 µM) | MBC +0.06 μg/ml PB (A. baumannii A329 [2]; A. baumannii A329, +0.06 μg/ml polymyxin B, 2nd experiment): 128 µg/mL | MBC (A. baumannii A329 [2]; 1st experiment): 128 µg/mL (≈ 428 µM) | MBC (A. baumannii A329 [2]; 2nd experiment): > 128 µg/mL | MIC +0.06 μg/ml PB (A. baumannii A473 [3]; A. baumannii A473, +0.06 μg/ml polymyxin B, 2nd experiment, visual reading): 4 µg/mL | MIC without PB/MIC + PB (A. baumannii A473 [3]; A. baumannii A473, ratio, PB 0.06 μg/ml, 2nd experiment): 8 | MIC (A. baumannii A473 [3]; 1st experiment): 32 µg/mL (≈ 107 µM) | MIC (A. baumannii A473 [3]; 2nd experiment, visual reading): 32 µg/mL (≈ 107 µM) | MIC +0.06 μg/ml PB (A. baumannii A329 [4]; A. baumannii A329, +0.06 μg/ml polymyxin B, 2nd experiment, visual reading): 128 µg/mL | MIC without PB/MIC + PB (A. baumannii A329 [4]; A. baumannii A329, ratio, PB 0.06 μg/ml, 2nd experiment): ≥1 | MIC (A. baumannii A329 [4]; 1st experiment): 128 µg/mL (≈ 428 µM) | MIC (A. baumannii A329 [4]; 2nd experiment, visual reading): > 128 µg/mL | MIC +[…] PB (A. baumannii A472 [5]; A. baumannii A472, 1st experiment): 0.25 µg/mL (≈ 0.835 µM) | MIC +[…] PB (A. baumannii A472 [5]; A. baumannii A472, 2nd experiment, visual reading): 0.25 µg/mL (≈ 0.835 µM) | MIC ratio without/with polymyxin B (A. baumannii A472 [5]; A. baumannii A472, ratio MIC without PB to MIC + PB, PB […], 2nd experiment): 32 µg/mL | MIC without PB/MIC + PB (A. baumannii A472 [5]; A. baumannii A472, ratio, PB […], 1st experiment): 64 | MIC (A. baumannii A472 [5]; 1st experiment): 16 µg/mL (≈ 53.4 µM) | MIC (A. baumannii A472 [5]; 2nd experiment, visual reading): 8 µg/mL (≈ 26.7 µM) | MBC +[…] PB (A. baumannii A472 [6]; 1st experiment): 0.25 µg/mL (≈ 0.835 µM) | MBC +[…] PB (A. baumannii A472 [6]; 2nd experiment): 0.25 µg/mL (≈ 0.835 µM) | MBC (A. baumannii A472 [6]; 1st experiment): 16 µg/mL (≈ 53.4 µM) | MBC (A. baumannii A472 [6]; 2nd experiment): 8 µg/mL (≈ 26.7 µM) | MBC +[…] PB (A. baumannii A489; 1st experiment): 2 µg/mL (≈ 6.68 µM) | MBC +[…] PB (A. baumannii A489; 2nd experiment): 0.25 µg/mL (≈ 0.835 µM) | MBC (A. baumannii A489; 1st experiment): 64 µg/mL (≈ 214 µM) | MBC (A. baumannii A489; 2nd experiment): 64 µg/mL (≈ 214 µM) | MBC +[…] PB [7, 10]: 0.5 µg/mL (≈ 1.67 µM) | MBC +[…] PB [7, 11]: 2 (0.5)* μg/ml | MBC [7, 10]: 8 µg/mL (≈ 26.7 µM) | MBC [7, 11]: 16 µg/mL (≈ 53.4 µM) | MIC +[…] PB (A. baumannii J2; 1st experiment): ≤0.125 µg/mL | MIC +[…] PB (A. baumannii J2; 2nd experiment, visual reading): ≤0.125 µg/mL | MIC without PB/MIC + PB (A. baumannii J2; 1st experiment): ≥32 | MIC without PB/MIC + PB (A. baumannii J2; 2nd experiment): ≥64 | MIC (A. baumannii J2; 1st experiment, read-out: MIC without PB): 4 µg/mL (≈ 13.4 µM) | MIC (A. baumannii J2; 2nd experiment, MIC read with alamar blue, read-out: MIC without PB, read with alamar blue): 4 µg/mL (≈ 13.4 µM) | MIC (A. baumannii J2; 2nd experiment, visual reading, read-out: MIC without PB): 8 µg/mL (≈ 26.7 µM) | MBC +0.06 μg/ml PB (A. baumannii A473 [8]; A. baumannii A473, +0.06 μg/ml polymyxin B, 2nd experiment): 4 µg/mL | MBC (A. baumannii A473 [8]; 1st experiment): 32 µg/mL (≈ 107 µM) | MBC (A. baumannii A473 [8]; 2nd experiment): 32 µg/mL (≈ 107 µM) | MIC [9]: 16 µg/mL (≈ 53.4 µM)
